The target of series [1] is T1, human bile salt export pump (BSEP) efflux transporter (Homo sapiens, UniProt O95342).
T1 construct: purchased SOLVO Biotechnology Charles River Laboratories, Szeged, Hungary; host or cells: HEK293 (inside out membrane vesicles)
As to the kind of experiment: BSEP Vesicular Transport Inhibition Assay (IC50 determination). It counts as biochemical. The following applies: human BSEP (HEK293) vesicles, taurocholate 0.2 μM, 4 mM Mg-ATP, 10 concentrations, 1 replicate. The procedure, abridged:
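Inside-out membrane vesicles from HEK293 cells expressing human BSEP were incubated with taurocholate probe substrate and compound (10 concentrations, single replicate) with 4 mM Mg-ATP, or 4 mM AMP for background, for 5 min at 37 °C. Vesicle-trapped substrate was quantified by liquid scintillation counting after filtration.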

A short description of series [2]: Example 9 pharmacokinetics assay for the PK and PD study Part I, II and III (plasma, tumor, liver). As to conditions: mouse, po, 10 mg/kg, p.o., single dose, ± SEM. It counts as in vivo, BALB/c nude mice. As to the method: For the PK and PD study Part I, agents were administered to BALB/c nude mice bearing A375 human melanoma xenografts tumors. Dabrafenib, Compound 218 and Compound 157 were dosed via p.o. once on day 1. Dabrafenib was dosed at 100 mg/kg. Compound 218 and Compound 157 were dosed at 10 mg/kg.
For the PK and PD study Part II, agents were administered to BALB/c nude mice bearing A375 human melanoma xenografts tumors. Compound 133, Compound 144 and Compound 198 were dosed at 10 mg/kg via p.o. once on day 1.
For the PK and PD study Part III, agent was administered to BALB/c nude mice bearing A375 human melanoma xenografts tumors. Compound 204 were dosed at 10 mg/kg via p.o. once on day 1.
The plasma samples were collected at predetermined time points for PK analysis. The mice were euthanized at predetermined time points post the treatment. The blood samples were collected into the 1.5 mL Eppendorf tubes containing 15 μL of 0.5 M EDTA-K2. And then the anticoagulant blood samples were centrifuged at 2,500 g at 4° C. for 15 minutes. The plasma samples were separated into 2 aliquots. The 1st was used for PK analysis, and the 2nd served as backup. The samples were stored at −80° C. before bioanalysis.
The tumor samples were collected at predetermined time points for PK and WB analysis. The tumor was dissected out and split into 3 parts. The 1st part was used for PK analysis, the 2nd part was used for WB analysis and the last one served as backup for study. The samples were transferred into pre-labeled tubes and quickly froze in liquid nitrogen within 2 minutes after dissection. The samples were stored at −80° C. before bioanalysis.
Liver samples were collected at predetermined time points for PK analysis. The left lobe of the liver was dissected out and split into 2 parts. The 1st part was used for PK analysis and the 2nd part served as the backup for the study. The samples were transferred into pre-labeled tubes and quickly froze in liquid nitrogen within 2 minutes after dissection. The samples were stored at −80° C. before bioanalysis.
The harvested plasma, tumor and liver samples were processed for pharmacokinetics analysis by LC-MS/MS with a concentration range of 5.00-10,000 ng/mL for Compound 218, Compound 157 and Compound 133 in plasma, 0.500-1,000 ng/ml for Compound 218 in liver and tumor homogenate, 0.200-400 ng/mL for Compound 157, Dabrafenib and Compound 133 in liver and tumor homogenate, 0.500-1000 ng/mL for Dabrafenib and Compound 204 in plasma, 0.200-200 ng/mL for Compound 204 in liver and tumor homogenate, 20.0-20,000 ng/mL for Compound 144 and Compound 198 in plasma, 1.00-1,000 ng/mL for Compound 144 and Compound 198 in liver and tumor homogenate.

[3] abbreviates: liver, read-out: Mean Concentration in Liver.
Where [4] appears, read: plasma, read-out: Mean Concentration in Plasma.
The mark [5] stands for this setting: tumor, read-out: Mean Concentration in Tumor.

Each structure is given as a SMILES string. Read-outs that look alike come from different tables or passages of the source. Bounds are passed on as bounds.

T1 sequence (O95342 whole entry): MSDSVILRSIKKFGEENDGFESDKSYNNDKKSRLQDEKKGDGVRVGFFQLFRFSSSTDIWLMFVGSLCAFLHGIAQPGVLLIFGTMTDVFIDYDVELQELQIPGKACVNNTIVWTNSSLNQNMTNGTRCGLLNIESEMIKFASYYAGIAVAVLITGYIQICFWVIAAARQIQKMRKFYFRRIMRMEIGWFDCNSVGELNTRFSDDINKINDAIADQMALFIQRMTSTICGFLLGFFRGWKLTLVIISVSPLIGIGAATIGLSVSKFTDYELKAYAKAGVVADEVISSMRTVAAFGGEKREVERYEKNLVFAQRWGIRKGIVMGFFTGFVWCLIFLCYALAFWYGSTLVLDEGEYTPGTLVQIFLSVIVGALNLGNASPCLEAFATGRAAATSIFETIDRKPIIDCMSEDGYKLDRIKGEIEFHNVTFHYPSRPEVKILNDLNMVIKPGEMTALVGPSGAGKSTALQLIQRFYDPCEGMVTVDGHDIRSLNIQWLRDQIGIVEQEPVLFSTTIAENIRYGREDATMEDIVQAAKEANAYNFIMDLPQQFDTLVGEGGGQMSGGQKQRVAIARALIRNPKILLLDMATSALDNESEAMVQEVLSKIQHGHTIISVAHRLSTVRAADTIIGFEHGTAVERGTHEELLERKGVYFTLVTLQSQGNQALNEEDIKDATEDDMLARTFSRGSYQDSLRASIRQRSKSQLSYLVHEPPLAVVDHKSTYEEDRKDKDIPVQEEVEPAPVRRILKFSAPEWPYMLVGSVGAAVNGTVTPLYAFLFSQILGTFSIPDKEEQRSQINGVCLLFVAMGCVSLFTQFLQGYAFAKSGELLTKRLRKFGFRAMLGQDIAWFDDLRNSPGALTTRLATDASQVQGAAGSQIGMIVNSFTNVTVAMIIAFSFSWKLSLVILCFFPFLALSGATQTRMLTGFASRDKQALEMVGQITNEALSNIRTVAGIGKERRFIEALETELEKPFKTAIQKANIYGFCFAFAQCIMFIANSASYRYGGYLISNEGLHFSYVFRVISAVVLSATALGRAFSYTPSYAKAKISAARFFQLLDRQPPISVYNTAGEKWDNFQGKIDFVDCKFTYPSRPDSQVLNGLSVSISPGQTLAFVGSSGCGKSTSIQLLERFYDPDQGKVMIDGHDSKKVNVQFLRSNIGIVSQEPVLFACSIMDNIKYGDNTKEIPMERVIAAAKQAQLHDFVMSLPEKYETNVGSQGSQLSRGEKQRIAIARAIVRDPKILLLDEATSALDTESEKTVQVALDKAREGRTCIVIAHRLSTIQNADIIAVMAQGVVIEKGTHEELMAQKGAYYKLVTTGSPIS

Turning to `CCN(C)S(=O)(=O)Nc1ccc(F)c(Oc2ccc3ncc(OC4CC5(CCN(C6CCC(c7cc8c(cc7F)c(N7CCC(=O)NC7=O)nn8C)CC6)CC5)C4)nc3c2)c1C#N` (single isomer, unassigned) [Compound 218, 7-[2-cyano-3-[[ethyl(methyl)sulfamoyl]amino]-6-fluoro-phenoxy]-2-[[7-[4-[3-(2,4-dioxohexahydropyrimidin-1-yl)-5-fluoro-1-methyl-indazol-6-yl]cyclohexyl]-7-azaspiro[3.5]nonan-2-yl]oxy]quinoxaline], in series [1] (in nM), the “BSEP Inhibition/IC50” value was 13210. In addition, in series [2] (setting [3]), the concentration at 6 h was determined as 5710 ± 300 ng/g and the concentration at 12 h was 972 ± 40.9 ng/g. In series [2] (setting [4]), the concentration at 1 h is 6310 ± 978 ng/mL, the concentration at 6 h came to 1750 ± 96.1 ng/mL, the concentration at 12 h is 206 ± 11.5 ng/mL and the concentration at 24 h came to 6.2 ± 3.47 ng/mL. Also, in series [2] (setting [5]), the concentration at 1 h was found to be 1850 ± 164 ng/g, the concentration at 6 h stood at 1360 ± 21.9 ng/g, the concentration at 12 h was 268 ± 26.7 ng/g and the concentration at 24 h worked out at 13.4 ± 4.31 ng/g.

As to `CCN(C)S(=O)(=O)Nc1ccc(F)c(Oc2ccc3ncn(C4CC5(CCN(C6CC7(CCN(c8cc9c(cc8F)c(N8CCC(=O)NC8=O)nn9C)CC7)C6)CC5)C4)c(=O)c3c2)c1C#N` (stereo not shown) [Compound 198, 6-[2-cyano-3-[[ethyl(methyl)sulfamoyl]amino]-6-fluoro-phenoxy]-3-[7-[7-[3-(2,4-dioxohexahydropyrimidin-1-yl)-5-fluoro-1-methyl-indazol-6-yl]-7-azaspiro[3.5]nonan-2-yl]-7-azaspiro[3.5]nonan-2-yl]-4-oxo-quinazoline], the “BSEP Inhibition/IC50” value in series [1] (in nM) is 15250. In series [2] (setting [3]), the concentration at 6 h came out at 2240 ± 416 ng/g and the concentration at 12 h turned out to be 1020 ± 177 ng/g. Moreover, in series [2] (setting [4]), the concentration at 1 h was 2430 ± 91.7 ng/mL, the concentration at 6 h amounted to 2670 ± 117 ng/mL, the concentration at 12 h worked out at 1700 ± 172 ng/mL and the concentration at 24 h is 573 ± 94.2 ng/mL. In series [2] (setting [5]), the concentration at 1 h was determined as 441 ± 38.8 ng/g, the concentration at 6 h came out at 1120 ± 28.5 ng/g, the concentration at 12 h was 776 ± 107 ng/g and the concentration at 24 h was 383 ± 128 ng/g.

As for `CO[C@@H]1CCN(S(=O)(=O)Nc2ccc(F)c(Oc3ccc4ncn([C@H]5COC6(CCN(C7CC8(C7)CN(c7cc9c(cc7F)c(N7CCC(=O)NC7=O)nn9C)C8)CC6)C5)c(=O)c4c3)c2C#N)C1` [Compound 144, (3R)-N-[2-cyano-3-[3-[(3R)-8-[2-[3-(2,4-dioxohexahydropyrimidin-1-yl)-5-fluoro-1-methyl-indazol-6-yl]-2-azaspiro[3.3]heptan-6-yl]-1-oxa-8-azaspiro[4.5]decan-3-yl]-4-oxo-quinazolin-6-yl]oxy-4-fluoro-phenyl]-3-methoxy-pyrrolidine-1-sulfonamide], the BSEP Inhibition/IC50 in series [1] is 7.94 µM. In series [2] (setting [3]), the concentration at 6 h was found to be 1890 ± 584 ng/g and the concentration at 12 h worked out at 873 ± 234 ng/g. For the same molecule, in series [2] (setting [4]), the concentration at 1 h is 11600 ± 2260 ng/mL, the concentration at 6 h is 6220 ± 1880 ng/mL, the concentration at 12 h is 1240 ± 395 ng/mL and the concentration at 24 h came to 143 ± 15.4 ng/mL. Besides, in series [2] (setting [5]), the concentration at 1 h stood at 946 ± 172 ng/g, the concentration at 6 h turned out to be 1180 ± 406 ng/g, the concentration at 12 h was found to be 616 ± 127 ng/g and the concentration at 24 h came out at 183 ± 45.4 ng/g.

For `CO[C@H]1CCN(S(=O)(=O)Nc2ccc(F)c(Oc3ccc4ncn([C@H]5COC6(CCN(C7CC8(C7)CN(c7cc9c(cc7F)c(N7CCC(=O)NC7=O)nn9C)C8)CC6)C5)c(=O)c4c3)c2C#N)C1` [Compound 157, (3S)-N-[2-cyano-3-[3-[(3R)-8-[2-[3-(2,4-dioxohexahydropyrimidin-1-yl)-5-fluoro-1-methyl-indazol-6-yl]-2-azaspiro[3.3]heptan-6-yl]-1-oxa-8-azaspiro[4.5]decan-3-yl]-4-oxo-quinazolin-6-yl]oxy-4-fluoro-phenyl]-3-methoxy-pyrrolidine-1-sulfonamide], the BSEP Inhibition/IC50 in series [1] was 8.83 µM. In series [2] (setting [3]), the concentration at 6 h was 2000 ± 132 ng/g and the concentration at 12 h was 1320 ± 233 ng/g. Besides, in series [2] (setting [4]), the concentration at 1 h was 14700 ± 2000 ng/mL, the concentration at 6 h came to 14700 ± 1560 ng/mL, the concentration at 12 h was 5420 ± 1400 ng/mL and the concentration at 24 h stood at 161 ± 40.1 ng/mL. Also, in series [2] (setting [5]), the concentration at 1 h amounted to 1460 ± 376 ng/g, the concentration at 6 h is 1990 ± 120 ng/g, the concentration at 12 h was 1470 ± 329 ng/g and the concentration at 24 h came out at 183 ± 137 ng/g.

For `CCN(C)S(=O)(=O)Nc1ccc(F)c(Oc2ccc3ncn(C4CC5(C4)CN(C4CCC(c6cc7c(cc6F)c(N6CCC(=O)NC6=O)nn7C)CC4)C5)c(=O)c3c2)c1C#N` (single isomer, unassigned) [Compound 204, 6-[2-cyano-3-[[ethyl(methyl)sulfamoyl]amino]-6-fluoro-phenoxy]-3-[2-[4-[3-(2,4-dioxohexahydropyrimidin-1-yl)-5-fluoro-1-methyl-indazol-6-yl]cyclohexyl]-2-azaspiro[3.3]heptan-6-yl]-4-oxo-quinazoline], the “BSEP Inhibition/IC50” value in series [1] (in nM) is more than 40000. In series [2] (setting [3]), the concentration at 6 h was 606 ± 73.4 ng/g and the concentration at 12 h stood at 291 ± 103 ng/g. Besides, in series [2] (setting [4]), the concentration at 1 h came out at 2070 ± 407 ng/mL, the concentration at 6 h was found to be 104 ± 6.18 ng/mL and the concentration at 12 h was 32.9 ± 12.1 ng/mL. In series [2] (setting [5]), the concentration at 1 h came out at 74.7 ± 16.5 ng/g, the concentration at 6 h was found to be 112 ± 11 ng/g and the concentration at 12 h was 45 ± 9.93 ng/g.

Take `Cn1nc(N2CCC(=O)NC2=O)c2cc(F)c(N3CC4(CC(N5CCC6(CC5)C[C@@H](n5cnc7ccc(Oc8c(F)ccc(NS(=O)(=O)N9CC[C@@H](F)C9)c8C#N)cc7c5=O)CO6)C4)C3)cc21` [Compound 133, (3R)-N-[2-cyano-3-[3-[(3R)-8-[2-[3-(2,4-dioxohexahydropyrimidin-1-yl)-5-fluoro-1-methyl-indazol-6-yl]-2-azaspiro[3.3]heptan-6-yl]-1-oxa-8-azaspiro[4.5]decan-3-yl]-4-oxo-quinazolin-6-yl]oxy-4-fluoro-phenyl]-3-fluoro-pyrrolidine-1-sulfonamide]: the BSEP Inhibition/IC50 in series [1] amounted to 6.22 µM. Moreover, in series [2] (setting [3]), the concentration at 6 h was found to be 2030 ± 179 ng/g and the concentration at 12 h was determined as 503 ± 207 ng/g. In series [2] (setting [4]), the concentration at 1 h was determined as 8880 ± 604 ng/mL, the concentration at 6 h was 3460 ± 69.8 ng/mL, the concentration at 12 h is 733 ± 348 ng/mL and the concentration at 24 h came out at 23.4 ± 5.56 ng/mL. Further, in series [2] (setting [5]), the concentration at 1 h stood at 764 ± 122 ng/g, the concentration at 6 h is 686 ± 6.23 ng/g, the concentration at 12 h amounted to 316 ± 172 ng/g and the concentration at 24 h was 41.7 ± 26.4 ng/g.

The values above are taken from patent US20260297060A1, “COMPOUNDS FOR THE DEGRADATION OF MUTANT BRAF” (C4 THERAPEUTICS, INC., priority 2023, published 2026).
